Measured values taken from patent US20130192322A1, “Plant Fertilizers Derived from Organic Nitrogen and Phosphorus Sources” (priority 2011, published 2013).

System: Tomato (var. Pink Girl)
Assay: Example 4: effect of enzymatically hydrolyzed protein and phytic acid on tomato growth in greenhouse mix
Format: in vivo
Experimental: Tomato (var. Pink Girl) were grown in a greenhouse mix (⅓ each of components, soil, peat moss and vermiculite). The treatments were arranged in randomized design with 3 replicates for each treatment. Seedlings were harvested and tops weighed forty six days after planting. Treatments included additions of phytic acid and protein hydrolyzate separately and in combination at different concentrations and applied to the soil and as foliar. First application, made two weeks after planting, was both as a foliar and to the soil (50 ml/plant). The second application, made two weeks following the first,) was both to soil (80 ml/plant) and as a foliar.

O=P(O)(O)O[C@H]1[C@H](OP(=O)(O)O)[C@@H](OP(=O)(O)O)[C@H](OP(=O)(O)O)[C@@H](OP(=O)(O)O)[C@H]1OP(=O)(O)O [Phytic Acid, phytic acid]
% of control (0.04% P2O5, Foliar): 109% | Av. Top fresh wt. of plants (0.04% P2O5, Foliar): 27.0 gm | % of control (0.04% P2O5, Soil application): 109% | Av. Top fresh wt. of plants (0.04% P2O5, Soil application): 27.0 gm | % of control (0.1% P2O5, Foliar): 107% | Av. Top fresh wt. of plants (0.1% P2O5, Foliar): 26.3 gm | % of control (0.1% P2O5, Soil application): 128% | Av. Top fresh wt. of plants (0.1% P2O5, Soil application): 31.5 gm
